According to patent publication US10087191B2, “Piperidine derivative and preparation method and pharmaceutical use thereof” (Jiangsu Hengrui Medicine Co., Ltd., priority 2015, dated 2018):
Like-named read-outs stand apart in the source and are kept apart here.

Assays:
Format in all cases: cell-based
MCF7 cells = experiment: Inhibition of the proliferation of MCF7 cells (Cell Titer-Glo); settings: Homo sapiens, MCF-7 cells, 72 hours, read-out: IC50 value of inhibition effect on the proliferation of MCF7 cells
Experimental: The object of this experiment was to determine the inhibition effect of the compounds on the proliferation activity of MCF7 cells, and the in vitro activity of the compounds was evaluated according to the IC50 value.
After incubation for 24 hours, the medium was removed, then 90 μl of the medium containing 2% FBS and 10 μl of the drug were added to each well, 10 μl of DMSO were added to the control group, and the blank group contained only 100 μl medium containing 2% FBS. The plate was gently shaken and incubated in a incubator at 37° C., 5% CO2. After 72 hours, 50 μl of mixed Cell Titer-Glo (Promega, Cat. No. G7571) were added to each well. The plate was shaken until the ingredients were well mixed, and placed at room temperature for 10 minutes, then the chemiluminescence signal value was determined.
The values of the chemiluminescence signals vs the logarithmic concentrations of the compounds were plotted using Graghpad Prism to obtain IC50 values.

ERα = ERα (Homo sapiens (Human), UniProt P03372); experiment: Degradation effect on ERα in MCF-7 cells (ERα Duoset ELISA); settings: read-out: IC50 value of the degradation effect on ERα
Experimental: In order to determine the degradation effect on ER induced by the compounds of the present invention, the following method was used to determine the degradation effect of the compounds of the present invention on ER.
MCF-7 cell line (TChu 74, Cell Bank of Chinese Academy of Sciences typical culture preservation Committee)
ERα Duoset Kit (#DYC5715E, R&D System)
MCF-7 cells were incubated in DMEM/F-12 medium containing 10% FBS.
On the first day of the experiment, MCF-7 cells were resuspended in DMEM/F-12 medium containing 10% FBS treated by activated carbon, then inoculated into a 48-well plate with a density of 50,000 cells/well and incubated for 22-24 hours.
On the second day of the experiment, the test compound was diluted with medium and added to a 48-well plate. The ERα-capture antibody was diluted to 1 μg/ml with PBS, and added to a 96-well plate at 100 μl/well. The plate was sealed and coated overnight at room temperature.
On the third day of the experiment, the coated 96-well plate was washed twice with PBS, added with a sealing solution (1% BSA in PBS) at 110 μl/well and sealed for 1 hour at room temperature. The 48-well plate was washed once with PBS, and the residual liquid was removed. Then, 60 μl of lysis (6 M urea, 1 mM EDTA, 0.5% Triton X-100, 1 mM PMSF, Protease Inhibitor cocktail) was added to each well. After lysis on ice for 15 minutes, the diluent (1 mM EDTA, 0.5% TritonX-100 dissolved in PBS) was added. The cell-diluted lysate was transferred to a 96-well plate at 100 μl/well, then the plate was incubated at room temperature for 2 hours. The diluted primary antibody was added after the plate was washed 4 times with a washing liquid (PBST). After incubation for 1 hour, the 96-well plate was washed 4 times, and the second antibody was added, then the plate was incubated for 30 minutes. After the plate was washed with a washing liquid, TMB chromogenic solution was added and incubated for 15 minutes. The reaction was stopped by the addition of 1 M H2SO4, then the light absorption at 450 nm was read.

estrogen receptor (ER) = estrogen receptor (ER) (Homo sapiens (Human), UniProt P03372); experiment: Inhibition of the binding of estrogen (E) to estrogen receptor (ER), MCF-7/ERE-luciferase reporter cells; settings: MCF-7/ERE-luciferase cells, 0.1 nM estradiol, 24 hours; read-out: IC50 value of inhibition effect on the binding of E to ER
Experimental: The inhibition effect of the compounds on the binding of E to ER in vitro was tested by the following method.
The object of this experiment was to determine the inhibition effect of the compounds on the binding of E to ER, and the in vitro activity of the compounds was evaluated according to the IC50 value.
MCF-7/ERE-luciferase cells were inoculated into the MEM medium (hyclone, SH30024.01B) containing 10% charcoal stripped FBS (Moregate, FBSF), 1% sodium pyruvate (Sigma, Cat. No. S8636), 1% nonessential amino acids (Sigma, Cat. No. M7145) and 500 μg/ml G418 in a 96-well plate with a density of 30,000 cells/well, and the cells were incubated under the conditions of 37° C. and 5% CO2. […] After incubation for 24 hours, the medium was removed, then 0.1 nM estradiol (Sigma, Cat. No. E2758) and 10 μl of the drug diluted with the medium were added to each well, and the control group was added with DMSO. The plate was gently shaken and incubated in a incubator at 37° C., 5% CO2. After 24 hours, the cell culture medium was discarded.
The inhibition effect of the compounds of the present invention on the binding of E to ER was tested by the experiment described above.

estrogen receptor (ER), sequence (P03372 whole entry): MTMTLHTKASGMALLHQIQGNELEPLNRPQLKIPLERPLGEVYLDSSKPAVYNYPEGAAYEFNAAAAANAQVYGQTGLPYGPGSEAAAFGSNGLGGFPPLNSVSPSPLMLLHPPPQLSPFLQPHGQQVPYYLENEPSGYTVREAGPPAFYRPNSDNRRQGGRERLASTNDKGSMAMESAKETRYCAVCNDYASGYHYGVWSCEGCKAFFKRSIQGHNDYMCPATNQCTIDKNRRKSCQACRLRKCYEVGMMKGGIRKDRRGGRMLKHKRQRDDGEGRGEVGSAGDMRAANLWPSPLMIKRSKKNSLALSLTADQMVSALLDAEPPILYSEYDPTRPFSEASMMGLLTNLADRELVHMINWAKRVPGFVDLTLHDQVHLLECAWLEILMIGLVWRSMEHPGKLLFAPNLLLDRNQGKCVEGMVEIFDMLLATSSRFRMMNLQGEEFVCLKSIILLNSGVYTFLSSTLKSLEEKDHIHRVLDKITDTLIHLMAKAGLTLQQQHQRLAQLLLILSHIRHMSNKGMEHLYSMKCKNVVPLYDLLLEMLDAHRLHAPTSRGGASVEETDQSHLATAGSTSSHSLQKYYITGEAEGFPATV
ERα, sequence (P03372 whole entry): as above

IC50 (MCF7 cells) | IC50 (estrogen receptor (ER)) | Compound | DC50 (ERα; MCF-7 cells) | DC50 (ERα)
0.34 nM | – | CCn1cc(-c2cc3c(cc2F)C(c2c(F)cc(/C=C/C(=O)O)cc2F)N(CC(C)(C)F)C(C)C3)cn1 [Example 17, (E)-3-(4-((1S,3R/1R,3S)-6-(1-ethyl-1H-pyrazol-4-yl)-7-fluoro-2-(2-fluoro-2-methylpropyl)-3-methyl-1,2,3,4-tetrahydroisoquinolin-1-yl)-3,5-difluorophenyl)acrylic acid] | 1.43 nM | –
1.03 nM | – | CCCn1cc(-c2ccc3c(c2)CC(C)N(CC(C)(C)F)C3c2c(F)cc(/C=C/C(=O)O)cc2F)cn1 [Example 18, (E)-3-(3,5-difluoro-4-((1S,3R/1R,3S)-2-(2-fluoro-2-methylpropyl)-3-methyl-6-(1-propyl-1H-pyrazol-4-yl)-1,2,3,4-tetrahydroisoquinolin-1-yl)phenyl)acrylic acid] | 4.2 nM | –
4.43 nM | 13.6 nM | CC1Cc2c(ccc3c2OCO3)C(c2c(F)cc(/C=C/C(=O)O)cc2F)N1CC(C)(C)F [Example 82, (E)-3-(3,5-difluoro-4-((6S,8R/6R,8S)-7-(2-fluoro-2-methylpropyl)-8-methyl-6,7,8,9-tetrahydro-[1,3]dioxolo[4,5-f]isoquinolin-6-yl)phenyl)acrylic acid] | – | –
1.83 nM | 0.85 nM | C[C@@H]1Cc2cc(-c3ccc4cnccc4c3)ccc2[C@@H](c2c(F)cc(/C=C/C(=O)O)cc2F)N1CC(C)(C)F [Example 98, (E)-3-(3,5-difluoro-4-((1S,3R)-2-(2-fluoro-2-methylpropyl)-3-methyl-1,2,3,4-tetrahydro-[6,6′-biisoquinolin]-1-yl)phenyl)acrylic acid] | – | –
1.63 nM | – | Cc1ncc(-c2ccc3c(c2)CC(C)N(CC(C)(C)F)C3c2c(F)cc(/C=C/C(=O)O)cc2F)o1 [Example 49, (E)-3-(3,5-difluoro-4-((1S,3R/1R,3S)-2-(2-fluoro-2-methylpropyl)-3-methyl-6-(2-methyloxazol-5-yl)-1,2,3,4-tetrahydroisoquinolin-1-yl)phenyl)acrylic acid] | 6.29 nM | –
4.86 nM | 9.7 nM | CC1Cc2cc(-c3cnn(C(C)C)c3)ccc2C(c2c(F)cc(/C=C/C(=O)O)cc2F)N1CC(C)(C)F [Example 50, (E)-3-(3,5-difluoro-4-((1S,3R/1R,3S)-2-(2-fluoro-2-methylpropyl)-6-(1-isopropyl-1H-pyrazol-4-yl)-3-methyl-1,2,3,4-tetrahydroisoquinolin-1-yl)phenyl)acrylic acid] | – | –
0.58 nM | 1.7 nM | CC1Cc2cc(-c3ccc4ncccc4c3)ccc2C(c2c(F)cc(/C=C/C(=O)O)cc2F)N1CC(C)(C)F [Example 63, (E)-3-(3,5-difluoro-4-((1S,3R/1R,3S)-2-(2-fluoro-2-methylpropyl)-3-methyl-6-(quinolin-6-yl)-1,2,3,4-tetrahydroisoquinolin-1-yl)phenyl)acrylic acid] | – | –
0.46 nM | – | CC1Cc2cc(-c3cnn(C(F)F)c3)ccc2C(c2c(F)cc(/C=C/C(=O)O)cc2F)N1CC(C)(C)F (centres unmarked) [Example 13] | 6.93 nM | –
4.79 nM | 13.7 nM | CC1Cc2cc(O[C@H]3CCOC3)ccc2C(c2c(F)cc(/C=C/C(=O)O)cc2F)N1CC(C)(C)F (stereo partly drawn) [Example 37, (E)-3-(3,5-difluoro-4-((1S,3R/1R,3S)-2-(2-fluoro-2-methylpropyl)-3-methyl-6-(((S)-tetrahydrofuran-3-yl)oxy)-1,2,3,4-tetrahydroisoquinolin-1-yl)phenyl)acrylic acid] | – | –
3.67 nM | 9.41 nM | CC1Cc2cc(-c3ncco3)ccc2C(c2c(F)cc(/C=C/C(=O)O)cc2F)N1CC(C)(C)F [Example 54, (E)-3-(3,5-difluoro-4-((1S,3R/1R,3S)-2-(2-fluoro-2-methylpropyl)-3-methyl-6-(oxazol-2-yl)-1,2,3,4-tetrahydroisoquinolin-1-yl)phenyl)acrylic acid] | – | –

Compound | IC50 (MCF7 cells) | IC50 (estrogen receptor (ER)) | DC50 (ERα; MCF-7 cells) | DC50 (ERα)
CC1Cc2cc(-c3cnn(C)c3)c(F)cc2C(c2c(F)cc(/C=C/C(=O)O)cc2F)N1CC(C)(C)F [Example 16, (E)-3-(3,5-difluoro-4-((1S,3R/1R,3S)-7-fluoro-2-(2-fluoro-2-methylpropyl)-3-methyl-6-(1-methyl-1H-pyrazol-4-yl)-1,2,3,4-tetrahydroisoquinolin-1-yl)phenyl)acrylic acid] | 0.47 nM | – | 3.11 nM | –
CC1Cc2cc3c(cc2C(c2c(F)cc(/C=C/C(=O)O)cc2F)N1CC(C)(C)F)OCO3 [Example 1, (E)-3-(3,5-difluoro-4-((5S,7R/5R,7S)-6-(2-fluoro-2-methylpropyl)-7-methyl-5,6,7,8-tetrahydro-[1,3]dioxolo[4,5-g]isoquinolin-5-yl)phenyl)acrylic acid] | 0.12 nM | – | – | 0.11 nM
CC1Cc2sc3ccccc3c2C(c2c(F)cc(/C=C/C(=O)O)cc2F)N1CC(C)(C)F [Example 6, (E)-3-(3,5-difluoro-4-((1R,3R/1S,3S)-2-(2-fluoro-2-methylpropyl)-3-methyl-1,2,3,4-tetrahydrobenzo[4,5]thieno[3,2-c]pyridin-1-yl)phenyl)acrylic acid] | 1.91 nM | – | 1.92 nM | –
CC1Cc2c(ccc3[nH]ncc23)C(c2c(F)cc(/C=C/C(=O)O)cc2F)N1CC(C)(C)F [Example 70, (E)-3-(3,5-difluoro-4-((6S,8R/6R,8S)-7-(2-fluoro-2-methylpropyl)-8-methyl-6,7,8,9-tetrahydro-3H-pyrazolo[4,3-f]isoquinolin-6-yl)phenyl)acrylic acid] | 0.14 nM | – | 0.77 nM | –
CC1Cc2c(oc3ccccc23)C(c2c(F)cc(/C=C/C(=O)O)cc2F)N1CC(C)(C)F [Example 4, (E)-3-(3,5-difluoro-4-((1R,3R/1S,3S)-2-(2-fluoro-2-methylpropyl)-3-methyl-1,2,3,4-tetrahydrobenzofuro[2,3-c]pyridin-1-yl)phenyl)acrylic acid] | 0.19 nM | – | 0.56 nM | –
CC1Cc2c(sc3ccccc23)C(c2c(F)cc(/C=C/C(=O)O)cc2F)N1CC(C)(C)F [Example 5, (E)-3-(3,5-difluoro-4-((1R,3R/1S,3S)-2-(2-fluoro-2-methylpropyl)-3-methyl-1,2,3,4-tetrahydrobenzo[4,5]thieno[2,3-c]pyridin-1-yl)phenyl)acrylic acid] | 1.2 nM | – | 3.94 nM | –
